Measurements from patent US20120208809A1, “9H-PYRROLO[2,3-B: 5,4-C'] DIPYRIDINE AZACARBOLINE DERIVATIVES, PREPARATION THEREOF, AND THERAPEUTIC USE THEREOF” (SANOFI, priority 2009, published 2012).

Experiments:
[1] = target: T1, Pim-2 (Homo sapiens, UniProt Q9P1W9); assay: TR-FRET assay of Pim kinase activity (phosphorylation of Bad Ser112), Pim-2; assay type: biochemical; settings: ATP 40 μM, read-out: IC50 Pim2
T1 construct: full-length human recombinant His6-labelled Pim-1, Pim-2 or Pim-3 protein; His6; made in house
Method: (§1) In order to determine the inhibition of Pim kinase activity, the compounds of the invention are tested in accordance with a routinely-used in-vitro TR-FRET assay (“Time Resolved-Fluorescence Resonance Energy Transfer”). […] For the assay, the following reagents are used:
(§2) Pim kinase—full-length human recombinant His6-labelled Pim-1, Pim-2 or Pim-3 protein (prepared according to J. Mol. Biol. (2005) 348, 183-193); Bad—full-length human recombinant His6-labelled Bad protein (prepared according to J. Mol. Biol. (2005) 348, 183-193); α-His6-APC—mouse monoclonal antibody conjugated to allophycocyanine SureLight™ directed against the His6 label (Perkin-Elmer, No. AD0059H, Waltham, Mass., United States); α-P˜Bad-Eu—mouse monoclonal antibody (Cell Signaling Technology #9296B, Danvers, Mass., United States) directed against phosphoBad (Ser112) (7E11) labelled on request by Perkin-Elmer with the reagent LANCE™ Eu-W1024.
(§3) The assay is based on the LANCE™ technology from Perkin-Elmer: the Eu-labelled antibody binds to phospho-Ser112 and generates a TR-FRET signal by interaction with the […] antibody directed against His6, bound to the His6 label of Bad. The TR-FRET signal is detected using a SpectraMax M5 plate reader (Molecular Devices) with the following settings: λex=340 nm, λem1=615 nm, λem2=665 nm. The ratio of the fluorescence signal at 665 nm to the fluorescence signal at 615 nm is used as the signal reading for the IC50 (calculations based on the 4-parameter logistic model). The assay is performed in 384-well format; the liquid manipulations are performed using a Beckmann 3000 liquid manipulation station. The test compounds are tested at 10 concentration points in duplicate; the highest concentration of compound is typically equal to 30 μM. The ATP concentration is equal to 40 μM.

[2] = target: T2, Pim-1 (Homo sapiens, UniProt P11309); assay: TR-FRET assay of Pim kinase activity (phosphorylation of Bad Ser112), Pim-1; assay type: biochemical; settings: ATP 40 μM, read-out: IC50 Pim1
T2 construct: full-length human recombinant His6-labelled Pim-1, Pim-2 or Pim-3 protein; His6; made in house
Method: as §1, §2, §3

[3] = target: T3, Pim-3 (Homo sapiens, UniProt Q86V86); assay: TR-FRET assay of Pim kinase activity (phosphorylation of Bad Ser112), Pim-3; assay type: biochemical; settings: ATP 40 μM, read-out: IC50 Pim3
T3 construct: full-length human recombinant His6-labelled Pim-1, Pim-2 or Pim-3 protein; His6; made in house
Method: as §1, §2, §3

[4] = target: PLK1 (Homo sapiens, UniProt P53350); assay: Biochemical results, IC50 PLK1
[5] = target: CDK1 (Homo sapiens, UniProt P06493); assay: Biochemical results, IC50 CDK1
Sequence of CDK1 (P06493 whole entry, species assumed): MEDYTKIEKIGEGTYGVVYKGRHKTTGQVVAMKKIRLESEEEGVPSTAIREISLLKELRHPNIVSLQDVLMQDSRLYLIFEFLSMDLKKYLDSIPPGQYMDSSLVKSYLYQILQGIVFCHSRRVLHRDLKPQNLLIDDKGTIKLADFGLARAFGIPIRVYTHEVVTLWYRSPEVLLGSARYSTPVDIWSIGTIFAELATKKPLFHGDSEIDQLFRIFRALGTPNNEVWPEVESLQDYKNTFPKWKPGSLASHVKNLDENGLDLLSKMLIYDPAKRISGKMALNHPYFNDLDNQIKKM
Sequence of CDK1 (P14635 whole entry partner, species assumed): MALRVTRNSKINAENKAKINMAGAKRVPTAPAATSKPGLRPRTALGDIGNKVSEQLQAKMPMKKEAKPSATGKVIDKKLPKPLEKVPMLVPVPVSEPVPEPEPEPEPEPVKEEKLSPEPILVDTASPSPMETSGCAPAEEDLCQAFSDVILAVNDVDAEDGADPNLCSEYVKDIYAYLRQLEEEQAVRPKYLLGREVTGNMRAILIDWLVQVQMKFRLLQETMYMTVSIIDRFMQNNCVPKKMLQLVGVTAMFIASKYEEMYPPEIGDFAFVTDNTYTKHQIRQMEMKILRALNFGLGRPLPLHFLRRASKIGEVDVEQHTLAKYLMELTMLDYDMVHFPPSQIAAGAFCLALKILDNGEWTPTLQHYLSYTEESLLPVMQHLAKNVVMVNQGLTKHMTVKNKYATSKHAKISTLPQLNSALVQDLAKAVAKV

Sequence of PLK1 (P53350 whole entry, species assumed): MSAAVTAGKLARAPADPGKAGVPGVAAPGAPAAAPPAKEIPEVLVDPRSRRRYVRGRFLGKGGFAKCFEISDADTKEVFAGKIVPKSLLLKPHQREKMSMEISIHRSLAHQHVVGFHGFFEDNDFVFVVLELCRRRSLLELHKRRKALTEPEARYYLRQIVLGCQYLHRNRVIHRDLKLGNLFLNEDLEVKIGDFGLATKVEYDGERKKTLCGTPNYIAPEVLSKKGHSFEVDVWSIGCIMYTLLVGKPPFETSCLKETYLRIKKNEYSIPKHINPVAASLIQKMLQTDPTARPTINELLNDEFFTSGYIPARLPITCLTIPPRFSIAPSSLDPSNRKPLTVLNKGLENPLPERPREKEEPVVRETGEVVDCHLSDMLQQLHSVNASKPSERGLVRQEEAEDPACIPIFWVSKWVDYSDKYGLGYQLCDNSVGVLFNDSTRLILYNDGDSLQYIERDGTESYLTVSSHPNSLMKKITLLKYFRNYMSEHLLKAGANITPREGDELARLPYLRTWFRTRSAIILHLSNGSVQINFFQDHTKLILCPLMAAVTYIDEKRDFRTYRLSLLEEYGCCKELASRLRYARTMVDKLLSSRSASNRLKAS
T2 sequence (P11309 whole entry): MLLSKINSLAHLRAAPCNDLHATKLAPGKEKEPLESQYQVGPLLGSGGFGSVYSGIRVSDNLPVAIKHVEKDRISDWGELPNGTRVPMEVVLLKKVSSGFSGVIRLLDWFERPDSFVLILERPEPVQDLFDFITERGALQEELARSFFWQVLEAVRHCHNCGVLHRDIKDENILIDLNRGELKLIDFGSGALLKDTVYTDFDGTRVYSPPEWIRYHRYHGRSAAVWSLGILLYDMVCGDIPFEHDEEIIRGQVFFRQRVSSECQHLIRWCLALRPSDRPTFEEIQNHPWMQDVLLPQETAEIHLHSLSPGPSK
T1 sequence (Q9P1W9 whole entry): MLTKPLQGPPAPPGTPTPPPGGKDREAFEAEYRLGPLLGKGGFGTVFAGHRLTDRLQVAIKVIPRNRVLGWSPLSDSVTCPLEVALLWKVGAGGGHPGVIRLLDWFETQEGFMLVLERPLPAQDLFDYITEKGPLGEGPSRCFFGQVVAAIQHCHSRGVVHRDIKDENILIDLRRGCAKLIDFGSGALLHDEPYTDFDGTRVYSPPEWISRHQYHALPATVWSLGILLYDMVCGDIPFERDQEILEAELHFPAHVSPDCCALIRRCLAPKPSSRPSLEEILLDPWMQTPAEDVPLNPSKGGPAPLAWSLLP

Compound | IC50 [1] [nM] | IC50 [2] [nM] | IC50 [3] [nM] | IC50 [4] [nM] | IC50 [5] [nM]
O=C(c1cccc(-c2c(F)cnc3[nH]c4cnc(-c5cccnc5)cc4c23)c1)N1CCOCC1 [Example 15, {3-[3-fluoro-6-(pyridin-3-yl)-9H-pyrrolo[2,3-b:5,4-c′]dipyridin-4-yl]phenyl}(morpholin-4-yl)methanone] | > 5000 | 100 to 1000 | 1000 to 5000 | – | –
CC(N)(CNC(=O)c1ccc(-c2c(F)cnc3[nH]c4cnc(-c5cccnc5)cc4c23)cc1)C(F)(F)F (stereo not drawn) [Example 91, N-(2-amino-3,3,3-trifluoro-2-methylpropyl)-4-[3-fluoro-6-(pyridin-3-yl)-9H-pyrrolo[2,3-b:5,4-c′]dipyridin-4-yl]benzamide] | 1000 to 5000 | 100 to 1000 | 100 to 1000 | 100 to 1000 | 100 to 1000
O=C(NCCN1CCCCCC1)c1ccc(-c2c(F)cnc3[nH]c4cnc(-c5cccnc5)cc4c23)cc1 [Example 60, N-[2-(azepan-1-yl)ethyl]-4-[3-fluoro-6-(pyridin-3-yl)-9H-pyrrolo[2,3-b:5,4-c′]dipyridin-4-yl]benzamide] | 100 to 1000 | < 100 | < 100 | 100 to 1000 | 100 to 1000
O=C(NCc1ncc[nH]1)c1ccc(-c2c(F)cnc3[nH]c4cnc(-c5cccnc5)cc4c23)cc1 [Example 76, 4-[3-fluoro-6-(pyridin-3-yl)-9H-pyrrolo[2,3-b:5,4-c′]dipyridin-4-yl]-N-(1H-imidazol-2-ylmethyl)benzamide] | 100 to 1000 | < 100 | < 100 | < 100 | 100 to 1000
CN1CCC(N(C)C(=O)c2ccc(-c3c(F)cnc4[nH]c5cnc(-c6cccnc6)cc5c34)cc2)C1 (stereo not drawn) [Example 70, 4-[3-fluoro-6-(pyridin-3-yl)-9H-pyrrolo[2,3-b:5,4-c′]dipyridin-4-yl]-N-methyl-N-(1-methylpyrrolidin-3-yl)benzamide] | 1000 to 5000 | < 100 | 100 to 1000 | 1000 to 5000 | 1000 to 5000
O=C(c1ccc(-c2c(F)cnc3[nH]c4cnc(-c5cccnc5)cc4c23)cc1)N1CCC(N2CCCC2)C1 (stereo not drawn) [Example 80, 1.3′-bipyrrolidin-1′-yl{4-[3-fluoro-6-(pyridin-3-yl)-9H-pyrrolo[2,3-b:5,4-c′]dipyridin-4-yl]phenyl}methanone] | 100 to 1000 | < 100 | < 100 | 100 to 1000 | 100 to 1000
O=C(NCc1ccnc(O)c1)c1ccc(-c2c(F)cnc3[nH]c4cnc(-c5cccnc5)cc4c23)cc1 [Example 82, 4-[3-fluoro-6-(pyridin-3-yl)-9H-pyrrolo[2,3-b:5,4-c′]dipyridin-4-yl]-N-[(2-hydroxypyridin-4-yl)methyl]benzamide] | 100 to 1000 | < 100 | < 100 | 100 to 1000 | 100 to 1000
CN1CCN(C(=O)c2ccc(-c3c(F)cnc4[nH]c5cnc(-c6cccnc6)cc5c34)cc2)CC1 [Example 16, {4-[3-fluoro-6-(pyridin-3-yl)-9H-pyrrolo[2,3-b:5,4-c′]dipyridin-4-yl]phenyl}(4-methylpiperazin-1-yl)methanone] | 1000 to 5000 | < 100 | 100 to 1000 | – | –
Cn1cc(-c2cc3c(cn2)[nH]c2ncc(F)c(-c4ccc(C(N)=O)cc4)c23)cn1 [Example 104, 4-[3-fluoro-6-(1-methyl-1H-pyrazol-4-yl)-9H-pyrrolo[2,3-b:5,4-c′]dipyridin-4-yl]benzamide] | 100 to 1000 | < 100 | < 100 | 100 to 1000 | 100 to 1000
COCCCNC(=O)c1ccc(-c2c(F)cnc3[nH]c4cnc(-c5cccnc5)cc4c23)cc1 [Example 17, 4-[3-fluoro-6-(pyridin-3-yl)-9H-pyrrolo[2,3-b:5,4-c′]dipyridin-4-yl]-N-(3-methoxypropyl)benzamide] | 1000 to 5000 | < 100 | 100 to 1000 | – | –
O=C(c1ccc(-c2c(F)cnc3[nH]c4cnc(-c5cccnc5)cc4c23)cc1)N1CCOCC1 [Example 13, {4-[3-fluoro-6-(pyridin-3-yl)-9H-pyrrolo[2,3-b:5,4-c′]dipyridin-4-yl]phenyl}(morpholin-4-yl)methanone] | 1000 to 5000 | < 100 | 100 to 1000 | – | –
CN(C)CCNC(=O)c1ccc(-c2c(F)cnc3[nH]c4cnc(-c5cccnc5)cc4c23)cc1F [Example 113, N-[2-(dimethylamino)ethyl]-2-fluoro-4-[3-fluoro-6-(pyridin-3-yl)-9H-pyrrolo[2,3-b:5,4-c′]dipyridin-4-yl]benzamide] | 100 to 1000 | < 100 | < 100 | – | –
CN(C)CCNC(=O)c1ccc(-c2c(F)cnc3[nH]c4cnc(-c5cccnc5)cc4c23)cn1 [Example 112, N-[2-(dimethylamino)ethyl]-5-[3-fluoro-6-(pyridin-3-yl)-9H-pyrrolo[2,3-b:5,4-c′]dipyridin-4-yl]pyridine-2-carboxamide] | 1000 to 5000 | 100 to 1000 | 100 to 1000 | – | –

Further lines, results first:

IC50 [1] [nM] | IC50 [2] [nM] | IC50 [3] [nM] | IC50 [4] [nM] | IC50 [5] [nM] | Compound
< 100 | < 100 | < 100 | – | – | N[C@@H]1CCCC[C@H]1NC(=O)c1ccc(-c2c(F)cnc3[nH]c4cnc(-c5cccnc5)cc4c23)cc1 [Example 83, N-[(1R,2R)-2-aminocyclohexyl]-4-[3-fluoro-6-(pyridin-3-yl)-9H-pyrrolo[2,3-b:5,4-c′]dipyridin-4-yl]benzamide]
100 to 1000 | < 100 | < 100 | 100 to 1000 | 100 to 1000 | CC1CCCCN1CCNC(=O)c1ccc(-c2c(F)cnc3[nH]c4cnc(-c5cccnc5)cc4c23)cc1 (stereo not drawn) [Example 55, 4-[3-fluoro-6-(pyridin-3-yl)-9H-pyrrolo[2,3-b:5,4-c′]dipyridin-4-yl]-N-[2-(2-methylpiperidin-1-yl)ethyl]benzamide]
100 to 1000 | < 100 | < 100 | 100 to 1000 | 1000 to 5000 | CCN1CCC[C@H]1CNC(=O)c1ccc(-c2c(F)cnc3[nH]c4cnc(-c5cccnc5)cc4c23)cc1 [Example 53, N-{[(2S)-1-ethylpyrrolidin-2-yl]methyl}-4-[3-fluoro-6-(pyridin-3-yl)-9H-pyrrolo[2,3-b:5,4-c′]dipyridin-4-yl]benzamide]
< 100 | < 100 | < 100 | 100 to 1000 | 100 to 1000 | N[C@H]1CCCC[C@@H]1NC(=O)c1ccc(-c2c(F)cnc3[nH]c4cnc(-c5cccnc5)cc4c23)cc1 [Example 84, N-[(1S,2S)-2-aminocyclohexyl]-4-[3-fluoro-6-(pyridin-3-yl)-9H-pyrrolo[2,3-b:5,4-c′]dipyridin-4-yl]benzamide]
100 to 1000 | < 100 | < 100 | 100 to 1000 | 100 to 1000 | CN(C)[C@H]1CCN(C(=O)c2ccc(-c3c(F)cnc4[nH]c5cnc(-c6cccnc6)cc5c34)cc2)C1 [Example 69, [(3S)-3-(dimethylamino)pyrrolidin-1-yl]{4-[3-fluoro-6-(pyridin-3-yl)-9H-pyrrolo[2,3-b:5,4-c′]dipyridin-4-yl]phenyl}methanone]
100 to 1000 | < 100 | < 100 | 100 to 1000 | 1000 to 5000 | CCN1CCCC1CNC(=O)c1ccc(-c2c(F)cnc3[nH]c4cnc(-c5cccnc5)cc4c23)cc1 (stereo not drawn) [Example 51, N-[(1-ethylpyrrolidin-2-yl)methyl]-4-[3-fluoro-6-(pyridin-3-yl)-9H-pyrrolo[2,3-b:5,4-c′]dipyridin-4-yl]benzamide]
1000 to 5000 | < 100 | 100 to 1000 | – | – | COCCNC(=O)c1ccc(-c2c(F)cnc3[nH]c4cnc(-c5cccnc5)cc4c23)cc1 [Example 14, 4-[3-fluoro-6-(pyridin-3-yl)-9H-pyrrolo[2,3-b:5,4-c′]dipyridin-4-yl]-N-(2-methoxyethyl)benzamide]
< 100 | < 100 | < 100 | – | – | N[C@H]1CCC[C@@H]1NC(=O)c1ccc(-c2c(F)cnc3[nH]c4cnc(-c5cccnc5)cc4c23)cc1 [Example 85, N-[(1S,2S)-2-aminocyclopentyl]-4-[3-fluoro-6-(pyridin-3-yl)-9H-pyrrolo[2,3-b:5,4-c′]dipyridin-4-yl]benzamide]
< 100 | < 100 | < 100 | – | – | N[C@@H]1CCC[C@H]1NC(=O)c1ccc(-c2c(F)cnc3[nH]c4cnc(-c5cccnc5)cc4c23)cc1 [Example 86, N-[(1R,2R)-2-aminocyclopentyl]-4-[3-fluoro-6-(pyridin-3-yl)-9H-pyrrolo[2,3-b:5,4-c′]dipyridin-4-yl]benzamide]
